Assay results taken from PMC11593002 (Current Issues in Molecular Biology, 2024).
pIC50: −log10 of the molar value. Values joined by “and” are separate entries in the source; they are usually repeats but may differ in a detail not shown here. Equal entries are not always repeated. “Also recorded” adds a separate entry of the source.

Columns and labels:
[1] = tested on: MCF-7; test: Cell cycle analysis by propidium iodide staining (FACS), MCF-7; type: cell-based; conditions: for effect on cell cycle of combination vs anticancer drug alone: drug + Iscador Qu (selected combinations); for effect on cell cycle: mono treatment
Experimental: (§1) After trypsinization, the cells (MCF7, MDA-MB-231, and MCF10A) were resuspended in medium + 10% FCS and centrifuged (1000 rpm, 5 min); then, the pellet was suspended in PBS (1 mL) and fixed with EtOH. After suspension in 2.5 mL pre-cold 70% EtOH, the cells were incubated on ice for 15 min. The staining procedure was as follows: The pellet was suspended in a 500 μL PI solution in PBS (final concentration of PI 1 μg/mL) and 0.1 mg/mL RNAse A, and 0.05% Triton X-100 was added. Following the incubation for 10 min at 37 °C, the cells were transferred to the flow cytometer, and cell fluorescence was measured. The samples were measured by flow cytometry (LSR II, BD Biosciences, Franklin Lakes, NJ, USA) and analyzed using BD FACS DIVA software v. 6.1.3 (BD Biosciences). The control samples of all cell lines underwent the same treatment but without the adding any anticancer drugs or Iscador Qu.
(§2) In the search of the mechanism of action, the cell cycle arrest induced after treatment with the selected combinations was analyzed. The cell aliquots were collected, and FACS analyses were used to detect the effects of the treatments. A propidium iodide staining assay was performed (Figures S1 and S2).

[2] = tested on: MCF-10A; test: MTT-dye reduction antiproliferative assay, MCF-10A; type: cell-based; conditions: for pIC50: Homo sapiens
Description: (§3) Breast cell lines (MCF-10A, MCF-7, and MDA-MB-231) were purchased from the American Type Culture Collection—ATCC (Manassas, VA, USA). MCF-7 and MDA-MB-231 were cultivated in Dulbecco’s modified Eagle’s medium (DMEM), supplemented with 10% fetal bovine serum (FBS), 1% sodium pyruvate, and 1% MEM non-essential amino acids (NEAA) without antibiotics. The non-tumorigenic cell line (MCF-10A) was cultivated in DMEM medium (Sigma-Aldrich, St. Louis, MO, USA) and supplemented with 10% FBS, 1% sodium pyruvate, 1% non-essential amino acids (NEAA), 20 ng/mL human epidermal growth factor (hEGF), 10 μg/mL insulin, and 0.5 μg/mL hydrocortisone without antibiotics. All cell lines were maintained in a humidified atmosphere with 5% CO2 at 37 °C.
(§4) The antiproliferative activity was tested via using the standard MTT-dye reduction assay described by Mosmann. The method is based on the metabolism of the tetrazolium salt MTT to insoluble formazan. The formazan absorption was registered using a microplate reader at λ = 540 nm. The measured absorption is an indicator of cell viability and metabolic activity.

[3] = tested on: MDA-MB-231; test: MTT-dye reduction antiproliferative assay, MDA-MB-231; type: cell-based
Description: as §3, §4

[4] = tested on: MCF-7; test: MTT-dye reduction antiproliferative assay, MCF-7; type: cell-based; conditions: for increase in IC50: drug + Iscador Qu, concentration not given
Description: as §3, §4

[5] = tested on: MDA-MB-231; test: Cell cycle analysis by propidium iodide staining (FACS), MDA-MB-231; type: cell-based; conditions: for effect on cell cycle of combination vs anticancer drug alone: drug + Iscador Qu (selected combinations); for effect on cell cycle: treatment alone
Experimental: as §1, §2

[6] = tested on: microtubule; set-up: method as in PMID 7670132; conditions: cited from earlier work
[7] = Iscador Qu both concentrations (50 or 100 µg/mL) or not specified
[8] = MDA-MB-231, Iscador Qu both concentrations (40 and 80 µg/mL) or not specified
[9] = MDA-MB-231, drug + Iscador Qu 40 µg/mL vs drug alone
[10] = MDA-MB-231, drug + Iscador Qu 80 µg/mL vs drug alone
[11] = Iscador Qu both concentrations (10 and 20 µg/mL) or not specified
[12] = drug + Iscador Qu 10 µg/mL vs drug alone
[13] = drug + Iscador Qu 20 µg/mL vs drug alone
[14] = drug + Iscador Qu 100 µg/mL vs drug alone
[15] = drug + Iscador Qu 50 µg/mL vs drug alone
[16] = higher Iscador Qu concentration (20 µg/mL)

O=C1[O][Pt]2([NH][C@@H]3CCCC[C@H]3[NH]2)[O]C1=O [Oxaliplatin]
effect on cell cycle of combination vs anticancer drug alone [1]: no significant difference | effect on cell cycle [1]: arrest in the G2/M phase | effect of combined treatment with Iscador Qu on IC50 / antiproliferative effect [2, 7]: increased the antiproliferative effect | effect of combined treatment with Iscador Qu on IC50 / antiproliferative effect [3, 8]: increased the antiproliferative effect | Relative Change of IC50 (%) [3, 9]: −48.45% | fold decrease in IC50 [3, 9]: 1.9 fold | Relative Change of IC50 (%) [3, 10]: −69.56% | fold decrease in IC50 [3, 10]: 3.3 fold | reduction in IC50 [3, 10]: 70% | effect of combined treatment with Iscador Qu on IC50 / antiproliferative effect [4, 11]: increased the antiproliferative effect | Relative Change of IC50 (%) [4, 12]: −47.30% | fold decrease in IC50 [4, 12]: ~2 fold | Relative Change of IC50 (%) [4, 13]: −80.76% | fold decrease in IC50 [4, 13]: 5.2 fold | reduction in IC50 [4, 13]: 81%

COc1cccc2c1C(=O)c1c(O)c3c(c(O)c1C2=O)C[C@@](O)(C(=O)CO)C[C@@H]3O[C@H]1C[C@H](N)[C@@H](O)[C@H](C)O1 [Epirubicin]
pIC50 ([2]; drug alone): 3.41 | fold decrease in IC50 [2, 14]: 2 fold | fold decrease in IC50 [3, 9]: 2 fold | fold decrease in IC50 [3, 10]: 2 fold | reduction in IC50 [3, 10]: 47% | effect of combined treatment with Iscador Qu on IC50 / antiproliferative effect [4, 11]: did not exhibit significant sensitivity; also recorded: No effect

CC(=O)O[C@@]12CO[C@@H]1C[C@H](O)[C@@]1(C)C(=O)[C@H](O)C3=C(C)[C@@H](OC(=O)[C@H](O)[C@@H](NC(=O)OC(C)(C)C)c4ccccc4)C[C@@](O)([C@@H](OC(=O)c4ccccc4)[C@H]21)C3(C)C [Docetaxel]
effect on cell cycle of combination vs anticancer drug alone [5]: did not alter the effect | effect on cell cycle [5]: cell cycle arrest in the G0 phase | potency as an inhibitor of microtubule depolymerization compared to Paclitaxel [6]: 2 fold | pIC50 ([2]; drug + Iscador Qu 50 µg/mL): ~8.38 | pIC50 ([2]; drug + Iscador Qu 100 µg/mL): ~8.38 | pIC50 ([2]; single treatment with drug): 8.29 | effect of combined treatment with Iscador Qu on IC50 / antiproliferative effect [2, 7]: slightly reduced | fold decrease in IC50 [2, 15]: 1.2 fold | fold decrease in IC50 [2, 14]: 1.2 fold | fold decrease in IC50 [3, 9]: more than 2 fold | fold decrease in IC50 [3, 10]: 4 fold | reduction in IC50 [3, 10]: 72% | effect of combined treatment with Iscador Qu on IC50 / antiproliferative effect [4, 16]: very slight IC50 decrease | effect of combined treatment with Iscador Qu on IC50 / antiproliferative effect ([4]; low Iscador Qu concentration (10 µg/mL)): IC50 increase

O=C(c1cc(Cc2n[nH]c(=O)c3ccccc23)ccc1F)N1CCN(C(=O)C2CC2)CC1 [Olaparib]
effect on cell cycle of combination vs anticancer drug alone [1]: no significant difference | effect on cell cycle [1]: arrest in the G2/M phase | effect of combined treatment with Iscador Qu on IC50 / antiproliferative effect [2, 7]: slight decrease in IC50 dose | effect of combined treatment with Iscador Qu on IC50 / antiproliferative effect ([3]; MDA-MB-231, Iscador Qu 40 µg/mL): negative treatment effect | effect of combined treatment with Iscador Qu on IC50 / antiproliferative effect [3, 8]: increase in IC50 dose | increase in IC50 [3, 10]: 22% | effect of combined treatment with Iscador Qu on IC50 / antiproliferative effect [4, 11]: antagonistic effect; also recorded: increase in IC50 dose | increase in IC50 [4]: 37% | effect of combined treatment with Iscador Qu on IC50 / antiproliferative effect [4, 16]: negative treatment effect

CN(Cc1cnc2nc(N)nc(N)c2n1)c1ccc(C(=O)N[C@@H](CCC(=O)O)C(=O)O)cc1 [Methotrexate]
effect of combined treatment with Iscador Qu on IC50 / antiproliferative effect ([2]; Iscador Qu 50 µg/mL): did not reduce the IC50 dose | effect of combined treatment with Iscador Qu on IC50 / antiproliferative effect ([2]; Iscador Qu 100 µg/mL): slightly increased | fold decrease in IC50 [3, 10]: 1.5 fold | reduction in IC50 [3, 10]: about 30% | effect of combined treatment with Iscador Qu on IC50 / antiproliferative effect [4, 11]: No effect | effect of combined treatment with Iscador Qu on IC50 / antiproliferative effect ([4]; Iscador Qu both concentrations (10 and 20 µg/mL) or not specified, listed as methotrexate): did not exhibit any sensitivity

O=c1[nH]cc(F)c(=O)[nH]1 [5-Fluorouracyl, 5-Fluorouracil]
effect of combined treatment with Iscador Qu on IC50 / antiproliferative effect ([2]; Iscador Qu 50 µg/mL): did not change the antiproliferative properties | effect of combined treatment with Iscador Qu on IC50 / antiproliferative effect ([2]; Iscador Qu 100 µg/mL): slightly decreased | pIC50 ([3]; Homo sapiens, MDA-MB-231, drug alone): 5.69 | fold decrease in IC50 [3, 9]: 1.2 fold | fold decrease in IC50 [3, 10]: 1.5 fold | reduction in IC50 [3, 10]: about 30% | lesser reduction in IC50 in MDA-MB-231 compared to MCF-7 ([3]; combination with Iscador Qu): 33% | pIC50 ([4]; Homo sapiens, MCF7, drug alone): 5.17 | fold decrease in IC50 [4, 12]: 1.5 fold | fold decrease in IC50 [4, 13]: 2.7 fold | reduction in IC50 [4, 13]: ~65%

CC/C(=C(\c1ccccc1)c1ccc(OCCN(C)C)cc1)c1ccccc1 [Tamoxifen]
increase in IC50 [4]: 31%

CCc1c2c(nc3ccc(OC(=O)N4CCC(N5CCCCC5)CC4)cc13)-c1cc3c(c(=O)n1C2)COC(=O)[C@]3(O)CC [Irinotecan]
effect of combined treatment with Iscador Qu on IC50 / antiproliferative effect [2, 7]: did not affect IC50 | effect of combined treatment with Iscador Qu on IC50 / antiproliferative effect [3, 8]: very slight IC50 decrease; also recorded: No significant alteration in IC50 | effect of combined treatment with Iscador Qu on IC50 / antiproliferative effect [4, 11]: did not affect IC50; also recorded: No effect

N.N.[Cl][Pt][Cl] [Cisplatin, cis-diamminedichloroplatinum (II)]
effect on cell cycle of combination vs anticancer drug alone [5]: did not alter the effect | effect on cell cycle [5]: blocked the cells in the S phase | effect of combined treatment with Iscador Qu on IC50 / antiproliferative effect [2, 7]: enhanced the antiproliferative effect | Relative Change of IC50 (%) [3, 9]: 56.77% | Relative Change of IC50 (%) [3, 10]: 43.80% | increase in IC50 [3, 10]: 44% | fold increase in IC50 (reduced antiproliferative effect) ([3]; MDA-MB-231, drug + Iscador Qu, concentration not given): 1.5 fold and 1.6 fold | Relative Change of IC50 (%) [4, 12]: 8.36% | Relative Change of IC50 (%) [4, 13]: −29.37% | reduction in IC50 [4, 13]: 30%

COc1cccc2c1C(=O)c1c(O)c3c(c(O)c1C2=O)C[C@@](O)(C(=O)CO)C[C@@H]3O[C@H]1C[C@H](N)[C@H](O)[C@H](C)O1 [Doxorubicin]
fold decrease in IC50 [2, 15]: about 2 fold | fold decrease in IC50 [2, 14]: about 2 fold | reduction in IC50 dose [3, 9]: 21% | fold decrease in IC50 [4, 12]: about 2 fold | reduction in IC50 dose [4, 12]: 50% | fold decrease in IC50 [4, 13]: about 2 fold

CN(C)C(=O)c1cc2cnc(Nc3ccc(N4CCNCC4)cn3)nc2n1C1CCCC1 [Ribociclib]
effect of combined treatment with Iscador Qu on IC50 / antiproliferative effect [2, 7]: did not significantly affect | effect of combined treatment with Iscador Qu on IC50 / antiproliferative effect [3, 8]: did not significantly affect; also recorded: No significant alteration in IC50 | fold decrease in IC50 [4, 12]: 2 fold | fold decrease in IC50 [4, 13]: 3 fold | reduction in IC50 [4, 13]: ~65%
